# Data from patent US20040133938A1, “Use of lipoic acid in plant culture media” (priority 2002, published 2004).
# System: MicroTom cotyledon explants
# Test: MicroTom Agrobacterium transformation: shoot regeneration, transformation efficiency, escapes
# Format: cell-based, Lycopersicon esculentum
# Conditions: for % of explants producing shoots (>1 cm in length): selection medium; for % of shoots that were escapes (did not root on selection medium): kanamycin selection
# Experimental: This example describes the use of lipoic acid in an Agrobacterium-based tomato transformation process. MicroTom (a cultivar of tomato species: Lycopersicon esculentum) seeds from Tomato Growers (Ball Seed Co., West Chicago, Ill. USA) were surface-sterilized by first soaking for 10 min in sterile deionized water, removing the water, and then adding enough 70% ethanol to immerse the seeds for 1 min while stirring vigorously and then aspirating the ethanol. The seeds were rinsed 2× with sterile deionized water and then soaked in 25% Chlorox with 1-2 drops of Tween 20 for 10 min while stirring frequently. The seeds were rinsed 3× with sterile deionized water. The seeds were germinated in phytatrays containing Davis Germination medium (4.3 g/L MS salts, 2 ml/L Gamborg's B-5 500× salts, 20 g/L sucrose and 10 g/L agar) (approximately 120 seeds/container), and the phytatrays were wrapped with aluminum foil. The phytatray cultures were maintained at 28° C. under the dark for 5 days. After 5 days, the phytatray cultures were unwrapped and grown at 24° C. under a 16 h photoperiod for about 44 h.
# Agrobacterium containing the desired transformation vector with a selectable marker (nptII for kanamycin selection as shown in FIG. 1) was streaked on a fresh LBssck plate (LB, 200 mL; spectinomycin (50 mg/mL stock), 200 μL; streptomycin (50 mg/mL stock), 200 μL; kanamycin (50 mg/mL stock), 200 μL; chloramphenicol (CAP, 25 mg/mL stock), 200 μL) from a frozen glycerol stock, and grown at about 28° C. for 3-4 days. One day before inoculation, a loopful of the bacterium cells from the freshly streaked plate was inoculated into 2 mL of LB+(LB, 200 mL; spectinomycin or streptomycin (50 mg/mL stock), 400 μL; kanamycin (50 mg/mL stock), 200 μL; chloramphenicol (CAP, 25 mg/mL stock), 200 μL) without acetosyringone, and grown at about 28° C. on a rotator at the speed between medium to high overnight. Then, 0.2 mL of the overnight bacterium culture was inoculated into 2 mL of LB+0.2 mM acetosyringone, and grown at about 28° C. on a rotator at the speed between medium to high for 4 hours.
# Four hours after the sub-culture, the bacterium growth phase was measured using the spectrophotometer. The final O.D.660 of the bacterium culture was between about 0.9 and 1.4. The bacterium culture was diluted by adding the bacterium culture to TXD medium in a sterile tube based on the volume to get the working O.D.660=0.1.
# Cotyledon explants were isolated from seedlings 7 days after sowing seeds on Davis Germination medium. Cotyledon explants were prepared by bathing them in 6 mL of TXD liquid medium (4.3 g/L MS salts, 2 mL/L Gamborg's B-5 500× salts, 4 mg/L pCPA (p-chlorophenoxyactic acid), 0.005 mg/L kinetin, and 30 g/L sucrose) to prevent desiccation and trimming them at both ends using a #15 feather blade. Immediately after the trimming, the cotyledon explants were gently placed on “feeder plates” containing UC2PC medium (2.2 g/L MS salts, 2.2 mL/L, Gamborg's B-5 500× salts, 0.2 mg/L 2,4-D, 4 mg/L pCPA, 0.1 mg/L kinetin, 30 g/L sucrose, 0.2 g/L potassium phosphate, 10 g/L agar, 8 mL/L acetosyringone (4.91 mg/mL), and 4 mL galacturonic acid (53.05 mg/mL)). The “feeder plates” are made by overlaying 2 mL of tobacco suspension cells and a sterile Whatman filter on the plates containing UC2PC medium. The cotyledon explants were gently poked with a sharp forceps (ASIM5311, Stainless French, made in Switzerland). Usually six to ten pokes were made per explant depending the size of cotyledons. Right after poking, the cotyledons were inoculated with Agrobacterium containing pMON15715 (FIG. 1) by adding 3 mL of the adjusted Agrobacterium solution on top of the cotyledons. The plates were incubated for 10 min at room temperature, and the Agrobacterium solution was aspirated with a sterile pipette. The cotyledons were then co-cultured for 2 days at 23-24° C. under a 16-h photoperiod. […]
smiles,measurement,setting,value
"O=C(O)CCCCC1CCSS1 (stereo not drawn) [lipoic acid, 1,2-dithiolane-3-pentanoic acid]",% of explants producing shoots (>1 cm in length),"5 μM lipoic acid, 45 explants",68.9%
same,% of resp. explant producing transgenic plants,"5 μM lipoic acid, MicroTom",78.6%
same,% of transgenic plants/shoot,"5 μM lipoic acid, MicroTom",43.9%
same,"Efficiency (stable transformation efficiency, percentage of transgenic plants produced per explant)","5 μM lipoic acid, MicroTom",155.1%
same,No. of total shoots produced/explant,"5 μM lipoic acid, MicroTom",3.53
same,No. of total shoots produced/resp. explant,"5 μM lipoic acid, MicroTom",4.93
same,No. of transgenic plants produced/resp. explant,"5 μM lipoic acid, MicroTom",2.25
same,TE (percentage of transgenic events produced per explant),"5 μM lipoic acid, MicroTom",78.3%
same,% of shoots that were escapes (did not root on selection medium),5 μM lipoic acid,54.6%
same,% of explants producing shoots (>1 cm in length),"10 μM lipoic acid, 46 explants",67.4%
same,% of resp. explant producing transgenic plants,"10 μM lipoic acid, MicroTom",74.2%
same,% of transgenic plants/shoot,"10 μM lipoic acid, MicroTom",42.9%
same,"Efficiency (stable transformation efficiency, percentage of transgenic plants produced per explant)","10 μM lipoic acid, MicroTom",178.7%
same,No. of total shoots produced/explant,"10 μM lipoic acid, MicroTom",4.17
same,No. of total shoots produced/resp. explant,"10 μM lipoic acid, MicroTom",6.19
same,No. of transgenic plants produced/resp. explant,"10 μM lipoic acid, MicroTom",2.65
same,TE (percentage of transgenic events produced per explant),"10 μM lipoic acid, MicroTom",94.1%
same,% of shoots that were escapes (did not root on selection medium),10 μM lipoic acid,58.3%
same,% of explants producing shoots (>1 cm in length),"50 μM lipoic acid, 49 explants",61.2%
same,% of resp. explant producing transgenic plants,"50 μM lipoic acid, MicroTom",67.9%
same,% of transgenic plants/shoot,"50 μM lipoic acid, MicroTom",48.0%
same,"Efficiency (stable transformation efficiency, percentage of transgenic plants produced per explant)","50 μM lipoic acid, MicroTom",144.1%
same,No. of total shoots produced/explant,"50 μM lipoic acid, MicroTom",3.00
same,No. of total shoots produced/resp. explant,"50 μM lipoic acid, MicroTom",4.83
same,No. of transgenic plants produced/resp. explant,"50 μM lipoic acid, MicroTom",2.35
same,TE (percentage of transgenic events produced per explant),"50 μM lipoic acid, MicroTom",76.4%
same,% of shoots that were escapes (did not root on selection medium),50 μM lipoic acid,55.4%
same,% of explants producing shoots (>1 cm in length),"100 μM lipoic acid, 43 explants",25.6%
same,% of resp. explant producing transgenic plants,"100 μM lipoic acid, MicroTom",93.8%
same,% of transgenic plants/shoot,"100 μM lipoic acid, MicroTom",50.6%
same,"Efficiency (stable transformation efficiency, percentage of transgenic plants produced per explant)","100 μM lipoic acid, MicroTom",112.1%
same,No. of total shoots produced/explant,"100 μM lipoic acid, MicroTom",2.21
same,No. of total shoots produced/resp. explant,"100 μM lipoic acid, MicroTom",8.64
same,No. of transgenic plants produced/resp. explant,"100 μM lipoic acid, MicroTom",4.38
same,TE (percentage of transgenic events produced per explant),"100 μM lipoic acid, MicroTom",49.7%
same,% of shoots that were escapes (did not root on selection medium),100 μM lipoic acid,57.1%
same,effect on total transgenic and non-transgenic shoot induction,lipoic acid from 5 μM to 50 μM,no inhibition effect
same,increase of the stable transformation efficiency,"summary, MicroTom, from 40%",6.5 fold
same,stable transformation efficiency,"summary, MicroTom, with lipoic acid",up to 260%
